Some test systems named below: NCI/ADR-RES ovarian; SN12C renal; HOP-92 NSCLC; SK-MEL-28 melanoma; NCI-H522 lung; HT29 colon; SK-MEL-5 melanoma; SF-268 CNS; OVCAR-3 ovarian; T-47D breast.
Assay in all cases: growth of human tumour cells (NCI), 48 h

The structures appear in SMILES notation. Where “and” joins values, the source holds several entries; their conditions need not be identical. Equal entries are not always repeated.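 Interpolation was linear, between the two tested concentrations surrounding the appropriate level; five concentrations were tested over 48 hours in 96-well plates. GI50: concentration for 50% inhibition of growth. TGI: total growth inhibition.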

With `C/C1=C\[C@H](C)C[C@H](C)OC(=O)C[C@H](c2ccc(O)cc2)NC(=O)[C@@H](Cc2c(Br)[nH]c3ccccc23)N(C)C(=O)[C@H](C)NC(=O)[C@@H](C)C1`, the GI50 is 0.0706 µM in the experiment with NCI/ADR-RES ovarian; 0.0738 µM in the experiment on SN12C renal; 0.0304 µM with HOP-92 NSCLC; 0.0272 µM with SK-MEL-28 melanoma; 0.0344 µM in the experiment on NCI-H522 lung; 0.0216 µM in the experiment with HT29 colon. The GI50 was 0.0451 µM in the experiment with SK-MEL-5 melanoma, 0.0352 µM in the experiment on SF-268 CNS and 0.0393 µM with OVCAR-3 ovarian. For the same compound, the TGI with NCI/ADR-RES ovarian was 2.02 µM; in the experiment with SN12C renal it was greater than 45.9 µM; in the experiment on HOP-92 NSCLC, 0.532 µM and 0.535 µM; in the experiment on SK-MEL-28 melanoma it was 0.308 µM and 1.74 µM; in the experiment on NCI-H522 lung, 0.908 µM and 1.13 µM; in the experiment on HT29 colon, 0.897 µM and 8.94 µM. The TGI with SK-MEL-5 melanoma was 0.578 µM and 0.391 µM; in the experiment with SF-268 CNS it was 0.443 µM and 0.166 µM; in the experiment on OVCAR-3 ovarian it was 0.323 µM and 0.255 µM.
For the compound `COc1ccc(SC2c3cc(OC)c(OC)cc3Oc3nc(N)c(C#N)c(N)c32)cc1` (stereo not given), the GI50 with T-47D breast is 1.3 µM; in the experiment on HOP-92 NSCLC it was 1.24 µM; in the experiment on SK-MEL-28 melanoma, 1.47 µM; with NCI-H522 lung, 1.37 µM; with HT29 colon, 2.16 µM; in the experiment on SK-MEL-5 melanoma, 1.5 µM. Besides, the values for the GI50 in the experiment with SF-268 CNS and in the experiment with OVCAR-3 ovarian were 1.55 µM and 1.06 µM, respectively. The TGI in the experiment with T-47D breast is 3.31 µM; in the experiment with HOP-92 NSCLC, 2.72 µM; in the experiment on SK-MEL-28 melanoma it was 2.91 µM; in the experiment with NCI-H522 lung it was 2.77 µM; in the experiment on HT29 colon, 5.04 µM; with SK-MEL-5 melanoma it was 2.82 µM. Also, the TGI with SF-268 CNS amounted to 3.07 µM; with OVCAR-3 ovarian, 2.31 µM.
As for `O=P(Oc1ccc(Cl)cc1)(Oc1ccc(Cl)cc1)N1CC1`, the TGI in the experiment on NCI/ADR-RES ovarian, in the experiment with T-47D breast, in the experiment on SN12C renal, with SK-MEL-28 melanoma, in the experiment with HT29 colon and in the experiment with SK-MEL-5 melanoma was greater than 10 µM each time. Besides, the TGI in the experiment with SF-268 CNS and with OVCAR-3 ovarian was greater than 10 µM throughout.
Take `O=NC1c2cccc3cccc(c23)C1N=O` (stereo not given): the TGI in the experiment on NCI/ADR-RES ovarian is 7.21 µM; in the experiment with T-47D breast, greater than 100 µM; in the experiment on HOP-92 NSCLC, 24.5 µM; in the experiment on NCI-H522 lung, 9.14 µM; with HT29 colon, 23.7 µM; with SK-MEL-5 melanoma, 30.7 µM. The TGI stood at 26.3 µM in the experiment with SF-268 CNS and 9.6 µM in the experiment with OVCAR-3 ovarian.
With `COc1ccc(/C=C/c2c(C(=O)/C=C/c3ccc(Cl)cc3)c(C)nc3ccccc23)cc1`, the GI50 with NCI/ADR-RES ovarian is 2.11 µM; in the experiment with T-47D breast, 1.7 µM; in the experiment with SN12C renal, 2.41 µM; with SK-MEL-28 melanoma it was 1.81 µM; in the experiment on NCI-H522 lung, 1.59 µM; with HT29 colon, 1.61 µM. The GI50 with SK-MEL-5 melanoma was 1.72 µM; in the experiment on SF-268 CNS, 1.98 µM; with OVCAR-3 ovarian, 1.62 µM. The TGI stood at 5.61 µM with NCI/ADR-RES ovarian; 5.72 µM in the experiment on T-47D breast; 6.97 µM in the experiment with SN12C renal; 3.42 µM with SK-MEL-28 melanoma; 4.62 µM in the experiment on NCI-H522 lung; 6.05 µM in the experiment on HT29 colon. Further, the results for the TGI in the experiment with SK-MEL-5 melanoma, in the experiment on SF-268 CNS and in the experiment with OVCAR-3 ovarian were 3.11 µM, 4.56 µM and 3.19 µM, respectively.
On to `CN(C)C[C@H]1CC[C@@H](CN(C)C)C1=O`, for which the TGI in the experiment with T-47D breast is 23.6 µM; in the experiment on SN12C renal, 15.4 µM; in the experiment on HOP-92 NSCLC, 20.5 µM; in the experiment on SK-MEL-28 melanoma, 12.2 µM; in the experiment on NCI-H522 lung it was 0.686 µM and 1.18 µM; in the experiment on HT29 colon it was 21.1 µM. Further, the TGI is 23.6 µM with SK-MEL-5 melanoma, 25.1 µM in the experiment on SF-268 CNS and 16.6 µM with OVCAR-3 ovarian. Also, the GI50 in the experiment on NCI-H522 lung was 0.269 µM.
As to `Cc1ccc2nc3c(C)c(Cl)c(=O)cc-3sc2c1`, the TGI was greater than 100 µM in the experiment on T-47D breast; greater than 100 µM in the experiment on SN12C renal; greater than 92.3 µM in the experiment on HOP-92 NSCLC; 99.2 µM in the experiment on SK-MEL-28 melanoma; greater than 56.1 µM with NCI-H522 lung; greater than 100 µM in the experiment on HT29 colon. For the same compound, the figures for the TGI in the experiment on SK-MEL-5 melanoma, with SF-268 CNS and in the experiment with OVCAR-3 ovarian were 29.7 µM, greater than 100 µM and greater than 100 µM, respectively.
For the compound `COc1ccc(/C(C)=C(\c2ccc(Cl)cc2)c2ccc(OCCN3CCCC3)cc2)cc1`, the GI50 with NCI/ADR-RES ovarian is 4.54 µM; in the experiment with SN12C renal it was 4.9 µM; in the experiment on HOP-92 NSCLC it was 4.17 µM; in the experiment with SK-MEL-28 melanoma it was 3.52 µM; in the experiment with NCI-H522 lung it was 4.39 µM; in the experiment on HT29 colon it was 1.15 µM. Also, the GI50 with SK-MEL-5 melanoma was 1.26 µM; with SF-268 CNS it was 4.73 µM; in the experiment with OVCAR-3 ovarian, 5.16 µM. Moreover, the TGI with NCI/ADR-RES ovarian is 9.36 µM; in the experiment with SN12C renal it was 9.63 µM; in the experiment on HOP-92 NSCLC it was 8.7 µM; in the experiment with SK-MEL-28 melanoma it was 7.54 µM; with NCI-H522 lung, 9.11 µM; with HT29 colon, 4.08 µM. Further, the TGI was determined as 4.64 µM in the experiment with SK-MEL-5 melanoma, 9.79 µM in the experiment on SF-268 CNS and 9.79 µM with OVCAR-3 ovarian.

For the origin of these results see PubChem BioAssay (NCI).
